Laboratory results taken from patent US9388226B2, “Peptides modulating the activity of macrophages, useable for the treatment of rheumatoid arthritis” (Universite Paul Sabatier, priority 2006, dated 2016).
Non-standard residues stand in square brackets, D forms with d. No end group written: not given here. Cit = NC(=O)NCCC[C@H](N)C(=O)O

How the values were obtained:
[1] = system: ACPA binding to citrullinated human fibrinogen; experiment: ELISA competition assay: inhibition of the reactivity of IgG ACPA+ with respect to citrullinated fibrinogen; conditions: IgG ACPA+ 16 μg/ml; competitor 0.006 to 1.56 mg/ml added 2 h before ELISA; FIG. 2
Procedure: 96-well microtitration plates (MaxiSorp, Nunc, VWR International, Fontenay sous Bois, France) are coated with citrullinated human fibrinogen (prepared as indicated in example 1) at a rate of 100 μl/well of a solution at 5 μg/ml in PBS, pH 7.4, overnight at 4° C. The plates are then saturated with a solution of PBS containing 2% of BSA (PBS-2% BSA) (180 μl/well). After this step, the IgG ACPA+ (prepared as indicated in example 1), diluted beforehand to 16 μg/ml in PBS-2% BSA in the presence or absence of increasing amounts of the competitor peptides α36-50cit38, 42 and/or β60-74cit60, 72, 74 (each at a concentration ranging from 0.006 to 1.56 mg/ml) added 2 h before the ELISA assay, are added. The concentration used for the IgG ACPA+ was chosen because it makes it possible to obtain an OD of between 1 and 1.5 in the absence of competitor peptide. Citrullinated or noncitrullinated fibrinogen (0.0002 to 1.56 mg/ml) and the noncitrullinated forms of the α36-50cit38, 42 and β60-74cit60, 72, 74 peptides (respectively referred to as α36-50 and β60-74) are used as control. The ACPA binding is then detected with peroxidase-labeled anti-human IgG goat IgGs (SouthernBiotech, Birmingham, Ala.) diluted to 1/9000 in PBS-2% BSA. All the incubations are carried out for 1 h at 4° C. and are followed by washes in PBS-0.1% Tween 20.
The results of this ELISA competition assay are illustrated in FIG. 2. The data are representative of 3 experiments carried out with two different preparations of IgG ACPA+. The results are expressed as degree of inhibition of the reactivity obtained in the absence of competitor peptide.

human macrophages = experiment: Inhibition of the stimulation of human macrophages by ICs associating ACPAs and citrullinated fibrinogen, TNF-α in supernatants; assay type: cell-based; conditions: IgG ACPA+ 1.13 mg/ml; for TNFα level: citrullinated fibrinogen plates
Procedure: The reconstitution of ICs associating ACPAs and citrullinated fibrinogen is carried out by coating flat-bottomed 96-well culture plates (Nunclon delta, Nunc, Roskilde, Denmark), under sterile conditions, with human citrullinated fibrinogen at 10 μg/ml, added at a rate of 50 μl/well and incubated overnight at 4° C. The plates are subsequently saturated in PBS, pH 7.4, 2% BSA for 1 hour at 4° C. (180 μl/well). After 3 washes in PBS, pH 7.4, 0.1% Tween-20, the wells are incubated for 2 hours at 4° C. with 100 μl of IgG ACPA+ at various concentrations (ranging from 9 to 0.28 mg/ml) diluted in PBS containing 2% BSA and 2M NaCl. Negative controls are made up in the same way, using either noncitrullinated human fibrinogen as antigen coated at the bottom of the plate, or control IgGs as antibodies. Wells coated only with citrullinated or noncitrullinated human fibrinogen and saturated in PBS, pH 7.4, 2% BSA are also used as negative controls.
After 3 washes in PBS, pH 7.4, 0.1% Tween-20, then 3 washes in PBS, the macrophages are added at a rate of 50000 viable cells/well in a volume of 200 μl. After incubation for 24 hours at 37° C. under an atmosphere containing 5% CO2, the supernatants are recovered (160 μl/well) and are rapidly frozen at −20° C. until they are analyzed. The negative control for activation is carried out using macrophages in macrophage-SFM medium alone. Macrophages placed on aggregated IgGs immobilized at the bottom of the culture plates by passive adsorption (at a rate of 100 μl of a solution at 5 μg/ml per well), or placed in the presence of bacterial lipopolysaccharide (LPS, Escherichia coli 0.55:B5 at a final concentration of 0.5 μg/ml; Sigma-Aldrich Chimie), are used as controls for the ability of the macrophages to respond to a stimulus inducing TNF-α synthesis.
An ELISA assay kit for human TNF-α, comprising a capture antibody, a detection antibody and recombinant human TNF-α for making up a calibration range of 7.8 to 500 pg/ml, was used to assay this cytokine in the culture supernatants (Human TNF-alpha BD OptEIA™ ELISA et, BD Biosciences Pharmingen, Pont-de-Claix, France).
The preparation and the stimulation of the macrophages are carried out exactly under the conditions described in example 1, except for the fact that the reconstitution of ICs is carried out with IgG ACPA+ diluted to 1.13 mg/ml in PBS containing 2M of NaCl and 2% of BSA in the presence or absence of the competitor peptide β60-74cit60, 72, 74 at two concentrations (0.8 and 4 mg/ml) added 2 h before the incubation with the citrullinated fibrinogen immobilized at the bottom of the culture plates. Competitions with citrullinated or noncitrullinated fibrinogen (0.4 mg/ml) and also with the noncitrullinated peptide β60-74 (0.8 and 4 mg/ml), are also carried out as control.

[2] = system: ACPAs in sera from patients suffering from RA; experiment: Reactivity of fibrin-derived citrullinated peptides with sera from RA patients having ACPAs; assay type: binding, human; conditions: 20 sera from RA patients having detectable ACPAs
Excerpt: Among these peptides, those which bear immunodominant epitopes (recognized by a large number of sera from patients suffering from RA) are given in table 2. The 20 sera tested correspond to a series originating from patients suffering from RA having ACPAs detectable by means of multiple tests for detecting these autoantibodies and which, taken as a whole, make it possible to represent the heterogeneity of the specificity profiles encountered in the patients.

Substance | percentage inhibition of the ACPA binding to the citrullinated fibrinogen, plateau value [1] | NUMBER OF REACTIVE SERA OUT OF THE 20 TESTED [2] | other results
SGIGTLDGFXHXHPD (SGIGTLDGF[Cit]H[Cit]HPD) [α501-515cit510, 512, fibrinogen α-chain derived citrullinated peptide, X = citrullyl residue] |  | 9 | 
XGHAKSXPVXGIHTS ([Cit]GHAKS[Cit]PV[Cit]GIHTS) [α621-635cit621, 627, 630, fibrinogen α-chain derived citrullinated peptide, X = citrullyl residue] |  | 10 | 
VDIDIKIXSCXGSCS (VDIDIKI[Cit]SC[Cit]GSCS; cysteine pairing not given here) [α171-185cit178, 181, fibrinogen α-chain derived citrullinated peptide, X = citrullyl residue] |  | 9 | 

Further lines, with some results ahead:

percentage inhibition of the ACPA binding to the citrullinated fibrinogen, plateau value [1] | Substance | NUMBER OF REACTIVE SERA OUT OF THE 20 TESTED [2] | other results
approximately 80% | citrullinated fibrinogen: purified human fibrinogen incubated with rabbit skeletal muscle peptidylarginine deiminase |  | TNFα level (human macrophages; fibrinogen competitor 0.4 mg/ml): approximately 20 pg/ml
approximately 15% | GPXVVEXHQSACKDS (GP[Cit]VVE[Cit]HQSACKDS) [α36-50cit38, 42, fibrinogen α-chain derived citrullinated peptide, X = citrullyl residue] | 12 | 
approximately 60% | XPAPPPISGGGYXAX ([Cit]PAPPPISGGGY[Cit]A[Cit]-NH2) [β60-74cit60, 72, 74, fibrinogen β-chain derived citrullinated peptide, X = citrullyl residue] | 14 | TNFα level (human macrophages; competitor peptide 0.8 mg/ml): approximately 40 pg/ml; TNFα level (human macrophages; competitor peptide 4 mg/ml): less than 20 pg/ml; effect on TNF-α production in response to the ICs (in words) (human macrophages; competitor 0.8 and 4 mg/ml (peptide)): dose-dependent inhibition
